Measurements published in ChEMBL document CHEMBL1159153, “Synthesis and biological activity of 3,4,5-trihydroxy etoposide” (Bioorg Med Chem Lett, 1993).
In brackets after ≈: the same amount, converted by molar mass.

Columns and labels:
HCT-116 = test: Tested for in vitro cytotoxicity against HCT116 cells; format: functional, cell-based; details: Homo sapiens
Mus musculus [1] = test: Long-time survivors of mice alive/total on day 30 after administration (60 mg/kg per injection) intraperitoneally on days 1 and 5; format: functional
Mus musculus [2] = test: Long time survivors of mice alive/total on day 30 after administration (60 mg/kg per injection) intraperitoneally on days 1 and 5; 4 survived out of 4 mice; format: functional
Mus musculus [3] = test: Long time survivors of mice alive/total on day 30 after administration of the compound; 1 survived out of 4 mice.; format: functional
Mus musculus [4] = test: Long time survivors of mice alive/total on day 30 after administration of the compound; 3 survived out of 4 mice.; format: functional
Mus musculus [5] = test: Tested for percent median survival time of drug-treated mice compared to saline -treated control at a dose of 100 mg/kg intraperitoneally; format: functional; details: route intraperitoneal
Mus musculus [6] = test: Tested for percent median survival time of drug-treated mice compared to saline -treated control at a dose of 25 mg/kg intraperitoneally; format: functional; details: route intraperitoneal
Mus musculus [7] = test: Tested for percent median survival time of drug-treated mice compared to saline -treated control at a dose of 50 mg/kg intraperitoneally; format: functional; details: route intraperitoneal
HCT cell line = test: Compound was evaluated for in vitro cytotoxicity against HCT/VP35 cells; format: functional, cell-based; details: Homo sapiens
[8] = Ratio of inhibition of HCT116 to that of inhibition of HCT/VP 35 cells; format: functional, HCT-116
Mus musculus [9] = test: Long-time survivors of mice alive/total on day 30 after administration (100 mg/kg) intraperitoneally on days 5 and 8 (experiment 1); format: functional
Mus musculus [10] = test: Tested for percent median survival time of drug-treated mice compared to saline -treated control at a dose of 150 mg/kg intraperitoneally; format: functional; details: route intraperitoneal
Mus musculus [11] = test: Tested for percent median survival time of drug-treated mice compared to saline -treated control at a dose of 38 mg/kg intraperitoneally; format: functional; details: route intraperitoneal
Mus musculus [12] = test: Tested for percent median survival time of drug-treated mice compared to saline -treated control at a dose of 75 mg/kg intraperitoneally; format: functional; details: route intraperitoneal
Mus musculus [13] = test: Long time survivors of mice alive/total on day 30 after administration (60 mg/kg per injection) intraperitoneally on days 1 and 5; 2 survived out of 4 mice.; format: functional
Mus musculus [14] = test: Tested for percent median survival time of drug-treated mice compared to saline -treated control at a dose of 120 mg/kg intraperitoneally; format: functional; details: route intraperitoneal
Mus musculus [15] = test: Tested for percent median survival time of drug-treated mice compared to saline -treated control at a dose of 40 mg/kg intraperitoneally; format: functional; details: route intraperitoneal
Mus musculus [16] = test: Tested for percent median survival time of drug-treated mice compared to saline -treated control at a dose of 80 mg/kg intraperitoneally; format: functional; details: route intraperitoneal

Row | Structure (SMILES) | IC50 (HCT-116) [mg/L] | Max T/C (Mus musculus [1]) [%] | LTS (Mus musculus [3]) | LTS (Mus musculus [4]) | IC50 (HCT cell line) [mg/L] | Ratio [8] | other results
1 | COc1cc([C@@H]2c3cc4c(cc3[C@@H](O[C@@H]3O[C@@H]5CO[C@@H](C)O[C@H]5[C@H](O)[C@H]3O)[C@H]3COC(=O)[C@H]23)OCO4)cc(O)c1O | 35 (≈ 60.9 µM) | > 563 | 1 | 2 | – | – | LTS (Mus musculus [2]): 4; T/C (Mus musculus [5]): 344; T/C (Mus musculus [6]): 250; T/C (Mus musculus [7]): >413
2 | COc1cc([C@@H]2c3cc4c(cc3[C@@H](O[C@@H]3O[C@@H]5CO[C@@H](C)O[C@H]5[C@H](O)[C@H]3O)[C@H]3COC(=O)[C@H]23)OCO4)cc(OC)c1O [ETOPOSIDE] | 0.35 (≈ 0.595 µM) | – | – | – | 5.2 (≈ 8.84 µM) | 15 | –
3 | C[C@@H]1OC[C@H]2O[C@@H](O[C@@H]3c4cc5c(cc4[C@@H](c4cc(O)c(O)c(O)c4)[C@H]4C(=O)OC[C@@H]43)OCO5)[C@H](O)[C@@H](O)[C@@H]2O1 | 79 (≈ 141 µM) | – | – | – | 68.9 (≈ 123 µM) | 0.87 | Max T/C (Mus musculus [9]): 230%; T/C (Mus musculus [10]): 150; T/C (Mus musculus [11]): 100; T/C (Mus musculus [12]): 130
4 | COC1=CC([C@@H]2c3cc4c(cc3[C@@H](O[C@@H]3O[C@@H]5CO[C@@H](C)O[C@H]5[C@H](O)[C@H]3O)[C@H]3COC(=O)[C@@H]32)OCO4)=CC(=O)C1=O | – | > 595 | >1 | 3 | – | – | LTS (Mus musculus [13]): 2; T/C (Mus musculus [14]): 447; T/C (Mus musculus [15]): 274; T/C (Mus musculus [16]): >621
